Results: patent US20170247409A1, “ABIETANE-TYPE DITERPENOIDS” (UNIVERSITY OF HELSINKI, priority 2014, published 2017)
Values after ≈ are worked out from the molar mass of the structure shown. Values joined by “and” are separate entries in the source; they are usually repeats but may differ in a detail not shown here. Equal entries are not always repeated. Where two headings read alike, the source gives them in different places.

Columns and labels:
[1] = test system: S. aureus ATCC 25923 biofilms; test: Anti-biofilm viability assay with redox dye, pre- and post-exposure, S. aureus ATCC 25923 biofilms; type: cell-based, Staphylococcus aureus; details: for inhibition at 400 µM: ATCC25923; for % inhibition, Post-biofilm formation: at 400 μM, existing biofilms
[2] = test system: S. epidermidis ATCC 35984; test: Anti-biofilm activity against S. epidermidis ATCC 35984; type: cell-based, Staphylococcus epidermidis; details: tested at IC50 conc. measured against S. aureus ATCC 25923
Experimental: (§1) Four of the compounds were also tested against gram-negative E. coli biofilms as well as other Staphylococcal strains, at the corresponding IC50 values measured against S. aureus ATCC 25923 (Table 4). […] Nonetheless, all the compounds presented below were found active against S. epidermidis (ATCC 12228 and ATCC 35984) strains (Table 3).

[3] = test system: S. aureus ATCC 25923 biofilms; test: Viable plate counts and Log Reduction of S. aureus ATCC 25923 biofilms; type: cell-based, Staphylococcus aureus; details: 400 μM, viable plate counts
Experimental: The viability of S. aureus (ATCC 25923) biofilms left upon exposure to compounds 20, 21, 22 and 25 was determined using viable plate counts and calculating the Log Reduction (Log R) value. This procedure involves scrapping the biofilms off the substrate, disaggregating them by sonication and plating the resulting suspension in agar. The method is highly laborious but it is the gold standard for the quantification of anti-biofilm efficacy (Pitts et al. 2003). […] Of note, a log R value of 2 represents a reduction of 99% of the viable cells in the biofilms, and typically, a log R of 3 is considered a relevant indicator of the compound efficacy as an anti-biofilm agent.

[4] = test system: S. epidermidis ATCC 12228; test: Anti-biofilm activity against S. epidermidis ATCC 12228; type: cell-based, Staphylococcus epidermidis; details: tested at IC50 conc. measured against S. aureus ATCC 25923
Experimental: as §1

single-cell bacteria = test: Antibacterial activity (MIC) against single-cell (planktonic) bacteria; type: cell-based; details: Staphylococcus aureus, in the absence of biofilms, strain not stated
Source text: We selected six of the active compounds in the post-exposure assays namely, compounds 20, 21, 22, 25, 31 and 32 for the follow-up studies. […] In this mode of the assay, the interaction of the compounds occurs initially with single-cell bacteria (that is, a planktonic solution) before biofilms are formed. Therefore, we tested additionally if the compounds could exert antibacterial activity against single-cell bacteria, in the absence of biofilms. Based solely on conventional MIC and MBC values, antibacterial activities against single-cell bacteria were also high for the derivatives. […] The antibacterial activity order 22>21>25>31>20>32 correlated very well with the measured activity in preventing biofilm formation.

HL cells = test: Tolerability of mammalian cells, resazurin viability assay; type: cell-based, human; details: concentrations of up to 100 μM; 24 hours exposure
Experimental: Viability values were measured in acute conditions (24 hours exposure) using the resazurin assay as in Karlsson et al, 2012 (Eur J Pharm Sci. 2012 Aug 30;47(1):190-205). […] The least tolerated molecule was 25, as only 23% (±5.9) of cells remained viable upon exposure to 100 μM. However, concentrations up to 30 μM caused no cytotoxicity (90.2% of viable cells, ±0.5).

E. coli XL1 blue = test: Anti-biofilm activity against E. coli XL1 blue biofilms; type: cell-based, Escherichia coli; details: tested at IC50 conc. measured against S. aureus ATCC 25923
Experimental: as §1

S. aureus Newman = test: Anti-biofilm potency against S. aureus Newman biofilms; type: cell-based, Staphylococcus aureus
Source text: In fact, only 2-3 fold-higher concentrations of the compounds were needed to kill existing biofilms, in comparison to inhibiting bacterial colonization. […] Anti-biofilm potencies were all in the micromolar range and they were particularly significant for compound 22. […] The activity was also confirmed against S. aureus Newman strain. Potency values calculated for the S. aureus Newman (Table 3) were very similar to the values registered for S. aureus ATCC 25923.

S. aureus biofilm = details: Fallarero et al, 2013; cited from earlier work
[5] = Staphylococcus aureus, post-exposure, S. aureus ATCC 25923, read-out: % Inhibition 400 μM POST
[6] = Staphylococcus aureus, pre-exposure, S. aureus ATCC 25923, read-out: % Inhibition 400 μM PRE
[7] = Staphylococcus aureus, ATCC25923, 50% inhibition of biofilm viability, S. aureus ATCC 25923, read-out: Potency, IC50 Prior-to-biofilm formation
[8] = Staphylococcus aureus, ATCC25923, 50% inhibition of biofilm viability, S. aureus ATCC 25923, value in parentheses, read-out: Potency, IC50 Prior-to-biofilm formation
[9] = Staphylococcus aureus, ATCC25923, 24 h, measured 24 hours after adding to existing biofilms, S. aureus ATCC 25923, read-out: Potency, IC50 Post-biofilm formation
[10] = Staphylococcus aureus, ATCC25923, 24 h, measured 24 hours after adding to existing biofilms, S. aureus ATCC 25923, value in parentheses, read-out: Potency, IC50 Post-biofilm formation
[11] = Staphylococcus aureus, S. aureus Newman, read-out: Potency, IC50 Post-biofilm formation
[12] = Staphylococcus aureus, S. aureus Newman, read-out: Potency, IC50 Prior-to-biofilm formation
[13] = Staphylococcus aureus, S. aureus Newman, value in parentheses, read-out: Potency, IC50 Post-biofilm formation
[14] = Staphylococcus aureus, S. aureus Newman, value in parentheses, read-out: Potency, IC50 Prior-to-biofilm formation

Compound	inhibition at 400 µM [1, 5]	inhibition at 400 µM [1, 6]	IC50 [1, 7]	IC50 [1, 8]	IC50 [1, 9]	IC50 [1, 10]	MIC (single-cell bacteria)	IC50 (S. aureus Newman; [11])	IC50 (S. aureus Newman; [12])	IC50 (S. aureus Newman; [13])	IC50 (S. aureus Newman; [14])	other results
CC(C)c1ccc2c(c1)CC[C@H]1[C@](C)(C(=O)N[C@H](C(=O)O)C(C)C)CCC[C@]21C [Compound 18, N-(Abiet-8,11,13-trien-18-oyl) L-valine]	99.2%	100%	–	–	–	–	–	–	–	–	–	–
CC[C@H](NC(=O)[C@]1(C)CCC[C@]2(C)c3ccc(C(C)C)cc3CC[C@@H]12)C(=O)O [Compound 19, N-(abiet-8,11,13-trien-18-oyl) Ethyl-L-glycine]	98.9%	99.8%	–	–	–	–	–	–	–	–	–	–
CC(C)C[C@H](NC(=O)[C@]1(C)CCC[C@]2(C)c3ccc(C(C)C)cc3CC[C@@H]12)C(=O)O [Compound 20, N-(Abiet-8,11,13-trien-18-oyl) L-leucine]	99.8%	100%	62.2 µM	25.7 µg/mL	121 µM	50.2 µg/mL	33.1 µg/mL (≈ 80 µM)	134 µM	51.8 µM	55.6 µg/mL	21.4 µg/mL	Inhibition percentage (±SD) Post-biofilm formation [2]: −12 (±6.0) %; Inhibition percentage (±SD) Prior-to-biofilm formation [2]: 53.4 (±4.9) %; Log Reduction (average ±SD) [3]: 3.9 (±0.4); Inhibition percentage (±SD) Post-biofilm formation [4]: 12.9 (±5.1) %; Inhibition percentage (±SD) Prior-to-biofilm formation [4]: 62.4 (±2.2) %; cytotoxicity in HL cells (HL cells): did not cause statistically significant cytotoxicity; Inhibition percentage (±SD) Post-biofilm formation (E. coli XL1 blue): 39.9 (±4.6) %; Inhibition percentage (±SD) Prior-to-biofilm formation (E. coli XL1 blue): 14.2 (±4.5) %
CC(C)c1ccc2c(c1)CC[C@H]1[C@](C)(C(=O)N[C@@H](Cc3ccccc3)C(=O)O)CCC[C@]21C [Compound 21, N-(Abiet-8,11,13-trien-18-oyl) L-phenylalanine]	99.6%	100%	35.5 µM	15.9 µg/mL	109 µM	48.7 µg/mL	22.4 µg/mL (≈ 50 µM)	83.7 µM	35.9 µM	37.5 µg/mL	16.1 µg/mL	Inhibition percentage (±SD) Post-biofilm formation [2]: 44.4 (±8.4) %; Inhibition percentage (±SD) Prior-to-biofilm formation [2]: 58.1 (±4.1) %; Log Reduction (average ±SD) [3]: 4.3 (±0.2); Inhibition percentage (±SD) Post-biofilm formation [4]: 46.9 (±9.9) %; Inhibition percentage (±SD) Prior-to-biofilm formation [4]: 57.3 (±4.6) %; cytotoxicity in HL cells (HL cells): did not cause statistically significant cytotoxicity; Inhibition percentage (±SD) Post-biofilm formation (E. coli XL1 blue): 30.4 (±6.1) %; Inhibition percentage (±SD) Prior-to-biofilm formation (E. coli XL1 blue): 7.4 (±2.7) %
CSCC[C@@H](NC(=O)[C@]1(C)CCC[C@]2(C)c3ccc(C(C)C)cc3CC[C@@H]12)C(=O)O [Compound 23, N-(Abiet-8,11,13-trien-18-oyl) D-methionine]	92.6%	102%	–	–	–	–	–	–	–	–	–	–
CC(C)c1ccc2c(c1)CC[C@H]1[C@](C)(C(=O)N[C@H](Cc3ccc(O)cc3)C(=O)O)CCC[C@]21C [Compound 24, N-(Abiet-8,11,13-trien-18-oyl) D-tyrosine]	26.3%	102%	–	–	–	–	–	–	–	–	–	–
CC(C)c1ccc2c(c1)CC[C@H]1[C@](C)(C(=O)N[C@H](Cc3ccccc3)C(=O)O)CCC[C@]21C [Compound 31, N-(Abiet-8,11,13-trien-18-oyl) D-phenylalanine]	102%	102%	37.4 µM	16.7 µg/mL	98.2 µM	44 µg/mL	31.3 µg/mL (≈ 69.9 µM)	110 µM	36.2 µM	49.4 µg/mL	16.2 µg/mL	–
CC(C)c1ccc2c(c1)C(=O)C[C@H]1[C@](C)(C(=O)N[C@@H](CC3CCCCC3)C(=O)O)CCC[C@]21C [Compound 32, N-(7-Oxoabiet-8,11,13-trien-18-oyl) Cyclohexyl-L-alanine]	102%	102%	60.6 µM	28.3 µg/mL	145 µM	67.9 µg/mL	46.8 µg/mL (≈ 100 µM)	93.1 µM	63.5 µM	43.5 µg/mL	29.7 µg/mL	–
CC1(C)S[C@@H]2[C@H](NC(=O)Cc3ccccc3)C(=O)N2[C@H]1C(=O)O [Penicillin G, reference compound]	–	–	–	–	–	–	–	–	–	–	–	IC50 ([1]; 50% inhibition of biofilm viability, S. aureus ATCC 25923, read-out: Potency, IC50 Prior-to-biofilm formation): 0.13 µM; Potency, IC50 Prior-to-biofilm formation ([1]; 50% inhibition of biofilm viability, S. aureus ATCC 25923, value in parentheses): 0.048 µg/mL (≈ 0.144 µM); % inhibition, Post-biofilm formation ([1]; S. aureus ATCC 25923): 57% inhibition at 400 μM; Log Reduction (average ±SD) [3]: 1.0 (±0.1); IC50 (S. aureus Newman; S. aureus Newman, read-out: Potency, IC50 Prior-to-biofilm formation): 0.27 µM; Potency, IC50 Prior-to-biofilm formation (S. aureus Newman; S. aureus Newman, value in parentheses): 0.090 µg/mL (≈ 0.269 µM); % inhibition, Post-biofilm formation (S. aureus Newman; at 400 μM, S. aureus Newman): 73% inhibition at 400 μM
CN[C@H](CC(C)C)C(=O)N[C@H]1C(=O)N[C@@H](CC(N)=O)C(=O)N[C@H]2C(=O)N[C@H]3C(=O)N[C@H](C(=O)N[C@H](C(=O)O)c4cc(O)cc(O)c4-c4cc3ccc4O)[C@H](O)c3ccc(c(Cl)c3)Oc3cc2cc(c3O[C@@H]2O[C@H](CO)[C@@H](O)[C@H](O)[C@H]2O[C@H]2C[C@](C)(N)[C@H](O)[C@H](C)O2)Oc2ccc(cc2Cl)[C@H]1O [Vancomycin, reference compound]	–	–	–	–	–	–	–	–	–	–	–	IC50 ([1]; Staphylococcus aureus, ATCC25923, read-out: Potency, IC50 Prior-to-biofilm formation): 710 nM and 1.03 µg/mL; % inhibition, Post-biofilm formation ([1]; S. aureus ATCC 25923): 25% inhibition at 400 μM; inhibition at 400 µM (S. aureus Newman; Staphylococcus aureus, NEWMAN, read-out: % inhibition, Post-biofilm formation): 37.9%; IC50 (S. aureus Newman; Staphylococcus aureus, NEWMAN, read-out: Potency, IC50 Prior-to-biofilm formation): 1.3 µM and 1.88 µg/mL
CC(C)c1ccc2c(c1)CC[C@H]1[C@](C)(C(=O)O)CCC[C@]21C [dehydroabietic acid]	–	–	–	–	–	–	–	–	–	–	–	prevention of S. aureus biofilm formation (S. aureus biofilm): low micromolar range
CC(C)c1ccc2c(c1)CC[C@H]1[C@](C)(CN)CCC[C@]21C [dehydroabietylamine]	–	–	–	–	–	–	–	–	–	–	–	prevention of S. aureus biofilm formation (S. aureus biofilm): low micromolar range
